The text below walks through data of paper PMC3795025, “A Target-Disease Network Model of Second-Generation BCR-ABL Inhibitor Action in Ph+ ALL” (PLoS ONE, 2013).

For the test, the target named is LYN (Homo sapiens, UniProt P07948). Kind of test: chemical proteomics pulldown from cell lysate (c-bafetinib beads, competition with […] free drug). In kind it is cell-based.
LYN, sequence (P07948 2-512): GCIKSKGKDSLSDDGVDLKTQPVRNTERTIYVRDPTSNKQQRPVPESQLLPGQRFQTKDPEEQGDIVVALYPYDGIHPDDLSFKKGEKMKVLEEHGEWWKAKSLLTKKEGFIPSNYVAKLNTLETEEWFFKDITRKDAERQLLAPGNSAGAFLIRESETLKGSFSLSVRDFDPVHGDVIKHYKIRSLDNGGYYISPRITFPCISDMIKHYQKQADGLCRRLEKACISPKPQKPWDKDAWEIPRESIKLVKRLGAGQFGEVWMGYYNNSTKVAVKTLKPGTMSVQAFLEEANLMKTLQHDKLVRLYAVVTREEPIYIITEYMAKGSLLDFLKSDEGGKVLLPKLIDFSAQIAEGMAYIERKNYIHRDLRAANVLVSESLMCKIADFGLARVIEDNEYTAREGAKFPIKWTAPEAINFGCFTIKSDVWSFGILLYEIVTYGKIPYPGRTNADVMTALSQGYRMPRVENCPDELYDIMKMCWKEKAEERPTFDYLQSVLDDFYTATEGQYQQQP

As for `Cc1ccc(NC(=O)c2ccc(CN3CC[C@H](N(C)C)C3)c(C(F)(F)F)c2)cc1Nc1nccc(-c2cncnc2)n1` [bafetinib], the “chemical proteomics pulldown from cell lysate (c-bafetinib beads, competition wi)” value was “LYN and BTK have been identified with all four TKI in the present chemical proteomics screen”.
